In assay [1] the test system is aortic aneurysm in Fbn1C1039G/+ mice. The experiment in a line: experimental aortic aneurysm in Fbn1C1039G/+ mice: echocardiographic aortic dimensions. In kind it is in vivo, mouse. Particulars: Fbn1C1039G/+ mice treated from two to six months of life, drinking water. An excerpt:
Dimensions from each animal represent averages of measurements made on still frames in systole of the maximal internal diameter of the aortic valve annulus, aortic sinuses, sinotubular junction, or ascending aorta by a cardiologist blinded to genotype. The aorta was imaged using a standard parasternal long axis view. Based on historic controls, the mean diameter of the wild type aortic root at 4 months of life is 1.73+/-0.2 mm while in our disease model (Fbn1ci°[…]/+) the mean diameter is 2.15+/-0.3 mm. […] Nair hair removal cream was used on all mice the day prior to echocardiograms. All echocardiograms were performed on awake, unsedated mice using the Visualsonics Vevo imaging system and a 30 MHz transducer. All CT images were acquired using an Inveon small animal micro CT (Siemens Medical Solutions Inc., Malven, Pa.). All mice received intravenous iodinated contrast (Isovue-370, Bracco Diagnostic Inc.) at 20 pL/min during the scan. […] Images were visualized and analyzed in OsiriX software. Cohorts of 8-week-old wild-type or Fbn1cw3gGi+ mice were treated with oral administration in drinking water of either Losartan or GSK343 for 20 weeks (FIG. 5). […] Then 200 mL of drinking water was supplemented with 250 pL of GSK343 stock solution. […] Aortic dimensions were monitored monthly by echocardiograms as mentioned above.

In assay [2] the test system is other histone methyltransferases. Particulars: cited from earlier work.
Another assay relates to MMP2 and MMP9 activity. The assay is described as follows: in vivo MMP activity (MMPSense 750 FAST) after carotid ligation. Also noted: species or system mouse. Particulars: 24 h post injection, ligated mice. How it is done:
Mice were tail vein injected with 600 uL of MMPSense 750 FAST, a near-infrared fluorescence sensor for MMP2 and MMP9 activity, (PerkinElmer, USA). Mice were sacrificed 24 h post injection and aortas were dissected and analyzed using a Kodak image station 4000MM Pro for macroscopic fluorescence reflectance molecular imaging.
Cohorts of 10-week-old wild-type mice were treated with oral administration in drinking water of GSK343 24 hrs before left carotid ligation and following treatment for 3 weeks. GSK343 inhibitor (25 mg) was dissolved in 1 mL of DMSO to obtain a stock solution of 46 mM. Then, 250 ml of drinking water was supplemented with 250 pl of GSK343 stock solution. Control group for was given with equal volumes of sterile water. Bottles containing GSK343 were replaced with fresh water supplied with drug every 3 days. For Malatl antisense LNA treatments, cohorts of 10-week-old wild-type mice were injected with 15 nmol in saline solution 24 hrs before left carotid ligation following by a second injection 7 days post-ligation.

For the next assay, the system named is FAK. The experiment in a line: immunofluorescence of p-FAK in ligated carotid. In kind it is in vivo, mouse. Particulars: media and intima of carotid arteries. The protocol:
All mice used in this study were cared for under strict compliance with the Partners Institutional Animal Care and Use Committee (IACUC), regulated by the United States Public Health Service (USPHS). Carotid ligations were performed in 10 week old mice. Briefly, animals were anesthetized using intraperitoneal ketamine/xylazine (80 and 12 mg/kg, respectively) followed by a small incision in the neck to expose the carotid artery. Then the left carotid was ligated at the carotid bifurcation level using a 8-0 silk suture. At 21 days mice were sacrificed and carotids were collected for histological analysis. Approximately 98% of wild type mice developed stenotic lesions. Mice that developed thrombosis of the ligated carotid were excluded from the study (−1¬2%). Malatl knockout mice were kindly provided by Dr. David Spector (Cold Spring Harbor, N.Y.). Hdac9 flox/flox/Talgn-cre mice were generated as previously reported (10). […]
Left and right carotids were cryosectioned using OCT standard protocol and sectioning. […] Slides 1, 5, 10, and 15 were H&E stained for quantification of neointima. For quantification of the neointima, internal and external elastic lamina perimeters and medial thickness from 4 quadrants were measured and averaged using Image J software from the National Institutes of Health (NIH). […]

The next assay concerns VSMCs. The experiment in a line: cytoskeletal architecture of VSMCs treated with GSK343. In kind it is cell-based, mouse. How it is done: Primary human aortic smooth muscle cells (HAoSMC) from healthy donors were purchased from Cell Applications Inc., California, USA (Cat. #354K-05a). Primary aneurysm aortic SMCs were isolated from fresh TAA tissue at the moment of surgery by standard explant of the aortic media. Mouse aortic SMCs were isolated by standard explant of the ascending section of the aortas from wild-type or Fbn1ci°39G1+ mice. Smooth muscle cell identity was assessed by immunofluorescence staining of contractile markers including SM22a, Calponin, Smoothelin and Vinculin. In order to preserve cell identity all experiments were carried out at passages 1-5 (Timraz et al., 2016). Human and murine SMCs were grown with smooth muscle cell growth medium from Cell Applications Inc. (Cat. #311-500). […] Fresh media containing GSK343 was supplied daily. For GSK343/TGF81 (10 ng/mL) combo treatment, cells were first treated with complete media containing GSK343 at concentration of 10 nM during the 2 first days followed by GSK343/TGFβ combination treatment the next 2 days. Prior to cellular collection cells were washed with sterile PBS and RNA or protein extraction were performed as described above.

SMILES strings stand for the structures. “Also recorded” adds a separate entry of the source.

For the molecule `CCCc1cc(C)[nH]c(=O)c1CNC(=O)c1cc(-c2ccnc(N3CCN(C)CC3)c2)cc2c1cnn2C(C)C` [GSK343], the aortic dimensions result in assay [1] is reported as “ability to improve aortic dimensions”. For the same molecule, in assay [2], the “selectivity against other histone methyltransferases” value is ≥ 1000 fold. Further, in the assay with MMP2 and MMP9 activity, the “activity of MMPs” value is recorded as “Inhibition of Mmp activity; also recorded: inhibited the activity of MMPs”. Further, the “phosphorylation of FAK” value in the assay with FAK is given as “dramatic reduction”. Also, the cytoskeletal architecture result with VSMCs was “improved cytoskeletal architecture”.

The values above are taken from patent publication US11938129B2, “Methods and compositions for the treatment of vascular disease” (THE GENERAL HOSPITAL CORPORATION, priority 2018, dated 2024).
